Patent US7378437B2, “Drugs for diabetes” (NICOX S.A., priority 2000, dated 2008)

Legend:
[1] = tested on: aorta of insulin-resistant rats; experiment: Vasorelaxing effect in vitro on isolated aorta of insulin-resistant (fructose-rich diet) rats, precontracted with phenylephrine, with or without LNNA; format: cell-based, rat; settings: for % Relaxation, Aorta with LNNA / % Relaxation, Aorta Without LNNA: phenylephrine 10 μM precontracted, percentage with respect to non insulin-resistant controls; for vasorelaxing effect in conditions of experimental diabetes (in words): aorta of insulin-resistant rats, in the presence and in absence of LNNA
Protocol: To evaluate the strengthening effect of the drugs of the invention on the antidiabetic activity of insulin, animals (rats) are treated with a fructose rich diet (Am. J. Physiol. 275, R788-R792, 1998). In this way an insulinic resistance is induced in the animals.
The pharmacological test is a test in vitro and consists in determining the vasorelaxing activity induced by the products of the invention, measured on an isolated vessel (aorta) taken from animals treated as above mentioned. The test in vitro is carried out both in the presence and in absence of LNNA (N-nitro-L-Arginine), which is an irreversible inhibitor of the nitric oxide synthethases, to verify if the vasorelaxing effect depends on the protective endogenous substances (nitric oxide).
The capability of the compounds of the invention to exert a vasorelaxing effect both in the presence and in absence of vasoprotective substances in such conditions of experimental diabetes, (animals with a fructose rich diet, and treated with or without LNNA), is an index which allows to evaluate the antidiabetic action of the tested compound.
In the pharmacological experiment isolated vessels are used, taken from rats which have developed, as said, an insulinic resistance condition induced by administering for 4 weeks a fructose rich diet.
Male Sprague Dawley rats having an average weight equal to 150-200 g were sacrificed and bled. The abdomi-nal aorta was removed and suitably prepared for determining the myorelaxing activity in vitro according to the method described by Vogel G. H. et al., Drug Discovery Evaluation-Pharmacological Assays page 32, 1996.
A part of the specimen is treated with LNNA.
The tissues are precontracted with phenylephrine (10 μM) and the relaxation was determined in the presence or in absence of the compounds of the invention or of the reference standards. […] The results are reported in Table 1 and are expressed as a percentage with respect to the vasorelaxing effect measured in the controls.

Structure (SMILES) | % Relaxation, Aorta with LNNA ([1]; concentration 10^−5 M) [%] | % Relaxation, Aorta Without LNNA ([1]; concentration 10^−5 M) [%] | % Relaxation, Aorta with LNNA ([1]; concentration 10^−4 M) [%] | % Relaxation, Aorta Without LNNA ([1]; concentration 10^−4 M) [%] | vasorelaxing effect in conditions of experimental diabetes (in words) [1] | other results
CC(=O)Oc1ccccc1C(=O)OCc1cccc(CO[N+](=O)[O-])n1.Cl [Ex. 1, 2-acetoxybenzoic acid 6-(nitroxymethyl)-2-methylpyridinyl ester hydrochloride] | 70 | 93 | – | – | – | –
CC(=O)Oc1ccccc1C(=O)Oc1cccc(CO[N+](=O)[O-])c1 [Ex. 2, 3-nitrooxymethylphenyl ester of the 2-acetoxybenzoic acid] | – | – | 70 | 70 | – | –
COc1ccc2c(c1)c(CC(=O)Oc1cccc(CO[N+](=O)[O-])c1)c(C)n2C(=O)c1ccc(Cl)cc1 [Ex. 3 comp., 1-(4-chlorobenzoyl)-5-methoxy-2-methyl-3-indolacetic acid 3′-(nitroxymethyl)phenyl ester, reference compound] | – | – | – | – | did not result active | % Relaxation, Aorta with LNNA ([1]; concentration 10^−6 M): 20%; % Relaxation, Aorta Without LNNA ([1]; concentration 10^−6 M): 20%
CC(=O)Oc1ccccc1C(=O)Oc1ccc(CO[N+](=O)[O-])cc1 [Ex. 6, 2-(acetyloxy)benzoic acid 4-(nitroxymethyl) phenyl ester] | 65 | 90 | – | – | – | melting point: 86 to 88 °C
CN(C)C(=N)N=C(N)N [Metformin, reference compound] | – | – | 30 | 90 | active only in the absence of the inhibitor of the NO synthesis | –
